Measured values published in US20230278972A1, “SUBSTITUTED HALOALKYL SULFONANILIDE HERBICIDES” (FMC Corporation, priority 2020, published 2023).

Legend:
Format in all cases: in vivo
[1] = system: barnyardgrass (Echinochloa crus-galli); assay: Test A preemergence, barnyardgrass; settings: Preemergence; for Barnyardgrass plant response rating: visual injury on 0 to 100 scale (0 no effect, 100 complete control), approximately 10 days; for Plant response rating, Barnyardgrass: 0 to 100 scale (0 no effect, 100 complete control)
Method in brief: (§1)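 Test chemicals, formulated in a non-phytotoxic solvent mixture with surfactant, were sprayed postemergence on plants 2 to 10 cm tall at the one- to two-leaf stage. Preemergence treatment was a directed soil spray onto freshly seeded pots. Both used a loam soil and sand blend.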

kochia (Bassia scoparia) [2] = assay: Test A preemergence, kochia; settings: Preemergence; for Kochia plant response rating: visual injury on 0 to 100 scale (0 no effect, 100 complete control), approximately 10 days; for Plant response rating, Kochia: 0 to 100 scale (0 no effect, 100 complete control)
Method in brief: as §1

[3] = system: ragweed (common ragweed, Ambrosia artemisiifolia); assay: Test A preemergence, ragweed; settings: Preemergence; for Ragweed plant response rating: visual injury on 0 to 100 scale (0 no effect, 100 complete control), approximately 10 days; for Plant response rating, Ragweed: 0 to 100 scale (0 no effect, 100 complete control)
Method in brief: as §1

[4] = system: Ryegrass, Italian (Italian ryegrass, Lolium multiflorum); assay: Test A preemergence, Ryegrass, Italian; settings: Preemergence; for Ryegrass, Italian plant response rating: visual injury on 0 to 100 scale (0 no effect, 100 complete control), approximately 10 days; for Plant response rating, Ryegrass, Italian: 0 to 100 scale (0 no effect, 100 complete control)
Method in brief: as §1

[5] = system: Foxtail, Giant (giant foxtail, Setaria faberi); assay: Test A preemergence, Foxtail, Giant; settings: Preemergence; for Foxtail, Giant plant response rating: visual injury on 0 to 100 scale (0 no effect, 100 complete control), approximately 10 days; for Plant response rating, Foxtail, Giant: 0 to 100 scale (0 no effect, 100 complete control)
Method in brief: as §1

[6] = system: pigweed (Amaranthus retroflexus); assay: Test A preemergence, pigweed; settings: for Pigweed plant response rating: visual injury on 0 to 100 scale (0 no effect, 100 complete control), approximately 10 days; for Plant response rating, Pigweed: 0 to 100 scale (0 no effect, 100 complete control)
Method in brief: (§2)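 Directed soil spray at planting gave the preemergence treatment, while foliar application to one- to two-leaf seedlings (2–10 cm) gave the postemergence one; pots held a loam and sand mixture and chemicals were carried in a non-phytotoxic solvent with surfactant.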

[7] = system: barnyardgrass (Echinochloa crus-galli); assay: Test A postemergence, barnyardgrass; settings: Postemergence, 0 to 100 scale (0 no effect, 100 complete control); for Barnyardgrass plant response rating: visual injury vs untreated controls after approx. 10 days
Method in brief: as §2

kochia (Bassia scoparia) [8] = assay: Test A postemergence, kochia; settings: Postemergence, 0 to 100 scale (0 no effect, 100 complete control); for Kochia plant response rating: visual injury vs untreated controls after approx. 10 days
Method in brief: as §1

[9] = system: ragweed (common ragweed, Ambrosia artemisiifolia); assay: Test A postemergence, ragweed; settings: Postemergence, 0 to 100 scale (0 no effect, 100 complete control); for Ragweed plant response rating: visual injury vs untreated controls after approx. 10 days
Method in brief: as §1

[10] = system: Ryegrass, Italian (Italian ryegrass, Lolium multiflorum); assay: Test A postemergence, Ryegrass, Italian; settings: Postemergence, 0 to 100 scale (0 no effect, 100 complete control); for Ryegrass, Italian plant response rating: visual injury vs untreated controls after approx. 10 days
Method in brief: as §1

[11] = system: Foxtail, Giant (giant foxtail, Setaria faberi); assay: Test A postemergence, Foxtail, Giant; settings: Postemergence, 0 to 100 scale (0 no effect, 100 complete control); for Foxtail, Giant plant response rating: visual injury vs untreated controls after approx. 10 days
Method in brief: as §1

[12] = system: pigweed (Amaranthus retroflexus); assay: Test A postemergence, pigweed; settings: Postemergence, 0 to 100 scale (0 no effect, 100 complete control); for Pigweed plant response rating: visual injury vs untreated controls after approx. 10 days
Method in brief: as §1

[13] = system: wheat (Triticum aestivum); assay: Test A postemergence, wheat; settings: Postemergence, 0 to 100 scale (0 no effect, 100 complete control); for Wheat plant response rating: visual injury vs untreated controls after approx. 10 days
Method in brief: as §2

corn (Zea mays) = assay: Test A postemergence, corn; settings: Postemergence, 0 to 100 scale (0 no effect, 100 complete control); for Corn plant response rating: visual injury vs untreated controls after approx. 10 days
Method in brief: as §1

[14] = system: blackgrass (Alopecurus myosuroides); assay: Test A postemergence, blackgrass; settings: Postemergence, 0 to 100 scale (0 no effect, 100 complete control); for Blackgrass plant response rating: visual injury vs untreated controls after approx. 10 days
Method in brief: as §1

[15] = system: galium (catchweed bedstraw, Galium aparine); assay: Test A postemergence, galium; settings: Postemergence, 0 to 100 scale (0 no effect, 100 complete control); for Galium plant response rating: visual injury vs untreated controls after approx. 10 days
Method in brief: as §2

[16] = 125 g ai/ha, visual injury approx. 10 days
[17] = 1000 g ai/ha, visual injury, approx. 10 days
[18] = 125 g ai/ha, visual injury, approx. 10 days
[19] = 500 g ai/ha, visual injury approx. 10 days

Cc1cc(C)c(-c2ccnn(C)c2=O)cc1NS(=O)(=O)C(F)(F)F [Compound 80]
Barnyardgrass plant response rating ([1]; 125 g ai/ha): 90 | Plant response rating, Barnyardgrass ([1]; 500 g ai/ha): 90 | Kochia plant response rating (kochia (Bassia scoparia) [2]; 125 g ai/ha): 80 | Plant response rating, Kochia (kochia (Bassia scoparia) [2]; 500 g ai/ha): 80 | Ragweed plant response rating ([3]; 125 g ai/ha): 70 | Plant response rating, Ragweed ([3]; 500 g ai/ha): 90 | Ryegrass, Italian plant response rating ([4]; 125 g ai/ha): 90 | Plant response rating, Ryegrass, Italian ([4]; 500 g ai/ha): 90 | Foxtail, Giant plant response rating ([5]; 125 g ai/ha): 90 | Plant response rating, Foxtail, Giant ([5]; 500 g ai/ha): 100 | Pigweed plant response rating ([6]; 125 g ai/ha): 60 | Plant response rating, Pigweed ([6]; 500 g ai/ha): 90 | Plant response rating, Barnyardgrass [7, 16]: 70 | Barnyardgrass plant response rating ([7]; 500 g ai/ha): 90 | Plant response rating, Kochia (kochia (Bassia scoparia) [8]; [16]): 40 | Kochia plant response rating (kochia (Bassia scoparia) [8]; 500 g ai/ha): 70 | Plant response rating, Ragweed [9, 16]: 90 | Ragweed plant response rating ([9]; 500 g ai/ha): 90 | Plant response rating, Ryegrass, Italian [10, 16]: 70 | Ryegrass, Italian plant response rating ([10]; 500 g ai/ha): 80 | Plant response rating, Foxtail, Giant [11, 16]: 90 | Foxtail, Giant plant response rating ([11]; 500 g ai/ha): 90 | Plant response rating, Pigweed [12, 16]: 70 | Pigweed plant response rating ([12]; 500 g ai/ha): 70 | Plant response rating, Wheat [13, 16]: 60 | Wheat plant response rating ([13]; 500 g ai/ha): 80 | Plant response rating, Corn (corn (Zea mays); [16]): 20 | Corn plant response rating (corn (Zea mays); 500 g ai/ha): 80 | Plant response rating, Blackgrass [14, 16]: 60 | Blackgrass plant response rating ([14]; 500 g ai/ha): 100 | Plant response rating, Galium [15, 16]: 90 | Galium plant response rating ([15]; 500 g ai/ha): 90

Cc1cc(C(F)(F)F)c(C(=O)N(C)C)cc1NS(=O)(=O)C(F)(F)F [Compound 133]
Barnyardgrass plant response rating ([1]; 125 g ai/ha): 30 | Plant response rating, Barnyardgrass ([1]; 500 g ai/ha): 90 | Kochia plant response rating (kochia (Bassia scoparia) [2]; 125 g ai/ha): 0 | Plant response rating, Kochia (kochia (Bassia scoparia) [2]; 500 g ai/ha): 0 | Ragweed plant response rating ([3]; 125 g ai/ha): 20 | Plant response rating, Ragweed ([3]; 500 g ai/ha): 90 | Ryegrass, Italian plant response rating ([4]; 125 g ai/ha): 20 | Plant response rating, Ryegrass, Italian ([4]; 500 g ai/ha): 90 | Foxtail, Giant plant response rating ([5]; 125 g ai/ha): 10 | Plant response rating, Foxtail, Giant ([5]; 500 g ai/ha): 90 | Pigweed plant response rating ([6]; 125 g ai/ha): 30 | Plant response rating, Pigweed ([6]; 500 g ai/ha): 90 | Plant response rating, Barnyardgrass [7, 16]: 0 | Barnyardgrass plant response rating ([7]; 500 g ai/ha): 10 | Plant response rating, Kochia (kochia (Bassia scoparia) [8]; [16]): 20 | Kochia plant response rating (kochia (Bassia scoparia) [8]; 500 g ai/ha): 20 | Plant response rating, Ragweed ([9]; 125 g ai/ha): 90 | Ragweed plant response rating ([9]; 500 g ai/ha): 80 | Plant response rating, Ryegrass, Italian ([10]; 125 g ai/ha): 30 | Ryegrass, Italian plant response rating ([10]; 500 g ai/ha): 40 | Plant response rating, Foxtail, Giant [11, 16]: 0 | Foxtail, Giant plant response rating ([11]; 500 g ai/ha): 10 | Plant response rating, Pigweed ([12]; 125 g ai/ha): 60 | Pigweed plant response rating ([12]; 500 g ai/ha): 90 | Plant response rating, Wheat ([13]; 125 g ai/ha): 0 | Wheat plant response rating ([13]; 500 g ai/ha): 50 | Plant response rating, Corn (corn (Zea mays); [16]): 10 | Corn plant response rating (corn (Zea mays); 500 g ai/ha): 10 | Plant response rating, Blackgrass [14, 16]: 0 | Blackgrass plant response rating ([14]; 500 g ai/ha): 0 | Plant response rating, Galium [15, 16]: 80 | Galium plant response rating ([15]; 500 g ai/ha): 90

Cc1ccc(C(=O)N2CCC(C(C)(C)C)CC2)cc1NS(=O)(=O)C(F)(F)F [Compound 262]
Plant response rating, Barnyardgrass ([1]; 1000 g ai/ha): 20 | Plant response rating, Kochia (kochia (Bassia scoparia) [2]; 1000 g ai/ha): 0 | Plant response rating, Ragweed ([3]; 1000 g ai/ha): 0 | Plant response rating, Ryegrass, Italian ([4]; 1000 g ai/ha): 20 | Plant response rating, Foxtail, Giant ([5]; 1000 g ai/ha): 70 | Plant response rating, Pigweed ([6]; 1000 g ai/ha): 0 | Plant response rating, Barnyardgrass [7, 17]: 0 | Plant response rating, Kochia (kochia (Bassia scoparia) [8]; [17]): 0 | Plant response rating, Ragweed [9, 17]: 0 | Plant response rating, Ryegrass, Italian [10, 17]: 20 | Plant response rating, Foxtail, Giant [11, 17]: 0 | Plant response rating, Pigweed [12, 17]: 20 | Plant response rating, Wheat [13, 17]: 0 | Plant response rating, Corn (corn (Zea mays); [17]): 0 | Plant response rating, Blackgrass [14, 17]: 20 | Plant response rating, Galium [15, 17]: 40

Cc1cc(Cl)c(C(=O)N2CCOCC2)cc1N(S(=O)(=O)C(F)(F)F)S(=O)(=O)C(F)(F)F [Compound 250]
Plant response rating, Barnyardgrass [1, 18]: 40 | Barnyardgrass plant response rating ([1]; 500 g ai/ha): 90 | Plant response rating, Kochia (kochia (Bassia scoparia) [2]; [18]): 80 | Kochia plant response rating (kochia (Bassia scoparia) [2]; 500 g ai/ha): 100 | Plant response rating, Ragweed [3, 18]: 80 | Ragweed plant response rating ([3]; 500 g ai/ha): 90 | Plant response rating, Ryegrass, Italian [4, 18]: 60 | Ryegrass, Italian plant response rating ([4]; 500 g ai/ha): 90 | Plant response rating, Foxtail, Giant [5, 18]: 90 | Foxtail, Giant plant response rating ([5]; 500 g ai/ha): 100 | Plant response rating, Pigweed [6, 18]: 100 | Pigweed plant response rating ([6]; 500 g ai/ha): 100 | Plant response rating, Barnyardgrass ([7]; 125 g ai/ha): 20 | Plant response rating, Barnyardgrass [7, 19]: 40 | Plant response rating, Kochia (kochia (Bassia scoparia) [8]; 125 g ai/ha): 70 | Plant response rating, Kochia (kochia (Bassia scoparia) [8]; [19]): 90 | Plant response rating, Ragweed ([9]; 125 g ai/ha): 80 | Plant response rating, Ragweed [9, 19]: 90 | Plant response rating, Ryegrass, Italian ([10]; 125 g ai/ha): 0 | Plant response rating, Ryegrass, Italian [10, 19]: 20 | Plant response rating, Foxtail, Giant ([11]; 125 g ai/ha): 0 | Plant response rating, Foxtail, Giant [11, 19]: 10 | Plant response rating, Pigweed ([12]; 125 g ai/ha): 80 | Plant response rating, Pigweed [12, 19]: 90 | Plant response rating, Wheat ([13]; 125 g ai/ha): 20 | Plant response rating, Wheat [13, 19]: 30 | Plant response rating, Corn (corn (Zea mays); 125 g ai/ha): 0 | Plant response rating, Corn (corn (Zea mays); [19]): 30 | Plant response rating, Blackgrass ([14]; 125 g ai/ha): 0 | Plant response rating, Blackgrass [14, 19]: 50 | Plant response rating, Galium ([15]; 125 g ai/ha): 50 | Plant response rating, Galium [15, 19]: 80
